Test results as given in patent publication US20180008592A1, “TREATMENT OF UREMIC PRURITUS” (TREVI THERAPEUTICS, INC., priority 2016, published 2018).

What was measured:
Format in all cases: in vivo, human
[1] = test system: renally impaired patients on hemodialysis with moderate or severe uremic pruritus; assay: Same trial: Itch MOS (itch-related sleep disruption); settings: for patients with sleep latency (time to fall asleep) >30 minutes, Itch MOS: last treatment week (Week 8)
From the text: FIG. 9 provides 12 questions and a numerical scale (range, 1-6; anchors at 1 “All of the time”; 2 “Most of the time”; 3 “A good bit of the time”; 4 “Some of the time”; 5 “A little of the time”; and 6 “None of the time”) used in assessing itching-related sleep disruption (Itch Medical Outcomes Study (MOS) Questions).
(§1) The primary endpoint was the change from Baseline to the Evaluation Period (Study weeks 7 and 8) in the modified intent-to-treat population. Quality of life-related secondary endpoints included change from Day 1 to the Evaluation Period in itching-related quality of life (using the Skindex-10 (FIG. 8)) and itching-related sleep disruption (using the Itch Medical Outcomes Study [Itch MOS] (FIG. 9), SLP-9). The Hospital Anxiety and Depression Score (HADS) used as a general measure of anxiety and depression. All patient-reported outcomes measures were selected based on their prior validation in uremic pruritus patients specifically or in the dialysis population more generally.
(§2) The primary and quality of life secondary endpoint analyses used a mixed model repeated measures ANCOVA with the main effects of treatment and site and baseline worst itch NRS score as the covariate. The model included time (i.e. Visit) as a factor variable and treatment*time (with placebo as the reference category) with an unstructured covariance structure for repeated measures. Data from all post-baseline visits were used to fit the model. For the primary endpoint, the baseline value was defined as the mean of worst itch daytime and nighttime NRS scores used for satisfying the protocol inclusion criterion #5 (mean worst itching NRS≧4.5 based on a total of 3 daytime and 3 nighttime measurements from 3 dialysis visits). For the secondary endpoints, the baseline value was based on a measurement taken on Study Day 1, prior to randomization. A pre-specified step-down procedure was used. The first comparison was of nalbuphine 120 mg BID dose vs. placebo. If the first comparison was significant at the p<0.05 level, then the comparison between the nalbuphine 60 mg BID dose vs. placebo would be conducted. Patients with a 15% or greater response in worst itch NRS were analyzed using a Cochran-Mantel-Haenszel (CMH) test. Analysis of the Itch MOS utilized the SLP-9 scoring algorithm.
(§3) In the first 2 weeks of treatment, patients were blindly force-titrated to their assigned target dose, with the patients in the active arms reaching a dose of 60 mg BID (NAL 60) after the first week and, for those in the high dose group, to 120 mg BID (NAL 120) after the second week. Study drug was administered in blister cards containing the labeled morning and evening doses for each day of the week. Subsequently, patients continued stable doses of the study drug for an additional 6 weeks and were then washed off study drug and followed for another 2 weeks for itching intensity and safety. No down-titration was permitted during the study, although patients who missed 6 or more consecutive doses during the Stable Dose Period (Weeks 3-8) could, with the Medical Monitor's approval, re-start treatment with blinded re-titration of just the morning or evening dose for 3 days before returning to the original dose. Patients were allowed to remain on their background antipruritic medications such as antihistamines and the use of these medications and indication for treatment was collected.

[2] = test system: renally impaired patients on hemodialysis with moderate or severe uremic pruritus; assay: Same trial: Skindex-10 (itch-related quality of life); settings: for Skindex-10 Disease Domain (bothersomeness of itching) [0-18], change from Baseline to the Evaluation Period, mean (SD) / Skindex-10 Mood/emotional distress domain (0-24), change from Baseline to the Evaluation Period, mean (SD) / Skindex-10 Social Functioning Domain [0-18], change from Baseline to the Evaluation Period, mean (SD) / Skindex-10 Total Score [0 (best) to 60 (worst)], change from Baseline to the Evaluation Period, mean (SD): 60 mg BID; for Skindex-10 Mood/emotional distress domain (0-24), change from Baseline to the Evaluation Period, mean / Skindex-10 Social Functioning Domain [0-18], change from Baseline to the Evaluation Period, mean / Skindex-10 Total Score [0 (best) to 60 (worst)], change from Baseline to the Evaluation Period, mean / Skindex-10 Disease Domain (bothersomeness of itching) [0-18], change from Baseline to the Evaluation Period, mean: 120 mg BID
From the text: FIG. 8 provides a numerical scale (range, 0-6; anchors at 0 “never bothered” and 6 “always bothered”) (top) used for answering 10 questions used in the assessment of itching-related quality of life (bottom) (Skindex-10).
as §1, §2, §3

[3] = test system: hemodialysis patients with uremic pruritus who completed the Example 2 study; assay: Phase 2/3 Open Label Extension Study (up to 24 weeks)
From the text: This clinical study was a Phase 2/3 Open Label Extension Study of the randomized, double-blind, 3-parallel arm, placebo controlled dose ranging study described in Example 2. All those subjects who were randomized, and then completed Example 2 study, were eligible to participate in the Extension Study.
The primary endpoint was a description of the overall incidence and nature of Treatment-Emergent AEs (TEAES) with the secondary endpoint a description of the incidence and nature of TEAEs during Treatment Weeks 4-24. Exploratory efficacy endpoints related to collecting data on the PRO instruments (NRS, Skindex-10, Itch MOS Sleep, HADS, PADS), the same instruments evaluated in Example 2.
Of the 373 patients that were randomized to the study of Example 2, 184 subjects both completed the study of Example 2 and enrolled into Extension Study. 167 subjects who enrolled into Extension Study entered the Treatment Period of the study and were exposed to nalbuphine HCl ER tablet administration and are the basis of the study safety population analysis. 17 subjects who were enrolled in the Extension were never dosed, they were categorized as screen failures and they are not part of the analysis.
Patients in Extension Study were titrated over a dose range of 30 mg QD to 120 mg BID based on tolerability and efficacy. The selected dose range was based on Example 2 study whereby patients were titrated from a 30 mg QD dose either to 60 mg BID or a 120 mg BID dose. The highest dose proposed was 120 mg BID (240 mg daily dose), and was well below the highest recommended daily treatment of 160 mg IV (equivalent to 960 mg oral) for the current marketed product.
The study duration for each patient was up to 26 weeks, with up to 24 weeks on study drug. The Extension Study consisted of a Treatment Period (that was followed by a Washout Safety Follow-up Period) and an Observation Period. Patients either entered directly into a drug Treatment Period (NRS >2) or a no-drug Observation Period (NRS ≦2) based on their reported NRS scores on the first Visit (Visit 1a). For up to 12 Extended Screening weeks, patients in the no-drug Observation Period could have also transitioned into the drug Treatment Period if their NRS increased to NRS >2. All patients entering the Treatment Period, whether immediately upon study entry or following a period of time in the Observation Period, were titrated to a dose ranging between 30 mg up to 120 mg BID, the highest dose tested in Example 2.
The total study duration for any individual patient was up to 26 weeks. […] For patients who entered the Treatment Period from the Observation Period, the total amount of time spent in the combined two periods of the study could not exceed 24 weeks.

[4] = severe subgroup (Baseline NRS ≧ 7), N = 61
[5] = severe subgroup (Baseline NRS ≧ 7), N = 63
[6] = safety population, titrated 30 mg QD to 120 mg BID, up to 24 weeks, most pronounced with baseline NRS ≧7

## Cl.Oc1ccc2c3c1O[C@H]1[C@@H](O)CC[C@@]4(O)[C@@H](C2)N(CC2CCC2)CC[C@]314 [Nalbuphine, 17-(cyclobutylmethyl)-4,5α-epoxymorphinian-3,6α, 14-triol, hydrochloride]
[1]; 60 mg BID, N = 128
  Itch MOS [0 (best) to 60 (worst)], change from Baseline to the Evaluation Period, mean (SD): −13.9 (17.6)
[1]; 60 mg BID, 68.7% at baseline
  patients with sleep latency (time to fall asleep) >30 minutes, Itch MOS: 35.9%
[1]; 120 mg BID, N = 120, p < 0.1
  Itch MOS [0 (best) to 60 (worst)], change from Baseline to the Evaluation Period, mean: −16.0
[1]; 120 mg BID, 67.5% at baseline
  patients with sleep latency (time to fall asleep) >30 minutes, Itch MOS: 25.0%
[1]; severe subgroup (Baseline NRS ≧ 7), 60 mg BID, N = 61
  Itch MOS (Itch-Related Sleep Disruption) [0 (best) to 60 (worst)], change from Baseline to the Evaluation Period, mean (SD): −15.0 (17.7)
[1]; severe subgroup (Baseline NRS ≧ 7), 120 mg BID, N = 63, p < 0.01
  Itch MOS (Itch-Related Sleep Disruption) [0 (best) to 60 (worst)], change from Baseline to the Evaluation Period, mean: −21.6
[1]; severe subgroup (Baseline NRS ≧7.0), 120 mg BID, p=0.007
  Sleep disruption due to itching: improved significantly relative to placebo
[2]; N = 128
  Skindex-10 Disease Domain (bothersomeness of itching) [0-18], change from Baseline to the Evaluation Period, mean (SD): −5.3 (4.9)
  Skindex-10 Mood/emotional distress domain (0-24), change from Baseline to the Evaluation Period, mean (SD): −4.4 (5.0)
  Skindex-10 Social Functioning Domain [0-18], change from Baseline to the Evaluation Period, mean (SD): −4.2 (6.7)
  Skindex-10 Total Score [0 (best) to 60 (worst)], change from Baseline to the Evaluation Period, mean (SD): −13.8 (14.6)
[2]; N = 120
  Skindex-10 Mood/emotional distress domain (0-24), change from Baseline to the Evaluation Period, mean: −5.2
  Skindex-10 Social Functioning Domain [0-18], change from Baseline to the Evaluation Period, mean: −5.4
  Skindex-10 Total Score [0 (best) to 60 (worst)], change from Baseline to the Evaluation Period, mean: −17.0
[2]; N = 120, p < 0.1
  Skindex-10 Disease Domain (bothersomeness of itching) [0-18], change from Baseline to the Evaluation Period, mean: −6.4
[2]; [4]
  Skindex-10 Disease Domain (bothersomeness of itching) [0-18], change from Baseline to the Evaluation Period, mean (SD): −6.2 (5.1)
  Skindex-10 Mood/emotional distress domain (0-24), change from Baseline to the Evaluation Period, mean (SD): −5.1 (5.0)
  Skindex-10 Social Functioning Domain [0-18], change from Baseline to the Evaluation Period, mean (SD): −5.1 (7.04)
  Skindex-10 Total Score [0 (best) to 60 (worst)], change from Baseline to the Evaluation Period, mean (SD): −16.4 (15.1)
[2]; [5]
  Skindex-10 Social Functioning Domain [0-18], change from Baseline to the Evaluation Period, mean: −7.1
  Skindex-10 Total Score [0 (best) to 60 (worst)], change from Baseline to the Evaluation Period, mean: −20.5
[2]; severe subgroup (Baseline NRS ≧ 7), N = 63, p < 0.05
  Skindex-10 Disease Domain (bothersomeness of itching) [0-18], change from Baseline to the Evaluation Period, mean: −7.1
[2]; severe subgroup (Baseline NRS ≧ 7), N = 63, p < 0.1
  Skindex-10 Mood/emotional distress domain (0-24), change from Baseline to the Evaluation Period, mean: −6.4
[3]; [6]
  Mean Skindex-10 by week: decreased from baseline to all measured time points
  Mean worst itch NRS by week: decreased from baseline to all measured time points
[3]; treatment period up to 24 weeks
  safety findings: consistent with the known safety profile of nalbuphine
[3]; up to 24 weeks
  tolerance to the anti-pruritic effects: do not develop a tolerance
